From patent US20150344457A1, “METHODS OF INHIBITING PRMT5” (EPIZYME, INC., priority 2012, published 2015)
Like-named read-outs stand apart in the source and are kept apart here.

Biological target: T1, PRMT5/MEP50 (Homo sapiens, UniProt O14744)
T1 construct: Expressed full-length human Flag-PRMT5/6His-MeP50 protein complex was purified; made in house; host or cells: Spodoptera frugiperda (SF9) insect cells, baculovirus (pDEST8)
Assay: PRMT5 Biochemical Assay (PRMT5/MEP50 enzyme assay on peptide substrate, 3H-SAM Flashplate)
Settings: read-out: Biochemical IC50
Source text: S-adenosylmethionine (SAM), S-adenosylhomocysteine (SAH), bicine, KCl, Tween20, dimethylsulfoxide (DMSO), bovine skin gelatin (BSG), and Tris(2-carboxyethyl)phosphine hydrochloride solution (TCEP) were purchased from Sigma-Aldrich at the highest level of purity possible. ^3H-SAM was purchase from American Radiolabeled Chemicals with a specific activity of 80 Ci/mmol 384-well streptavidin Flashplates were purchased from PerkinElmer.
Peptide representative of human histone H4 residues 1-15 was synthesized with a C-terminal linker-affinity tag motif and a C-terminal amide cap by 21st Century Biochemicals. […] The sequence was Ac-[…][K-Biot]-amide (SEQ ID NO.:3).
Full-length human MEP50 (NM_024102) clone was amplified from a human testis cDNA library incorporating a 5′ sequence encoding a 6-histidine tag (MHHHHHH) (SEQ ID NO.:5) fused directly to Arg 2 of MEP50. The amplified genes were sublconed into pENTR/D/TEV (Life Technologies) and subsequently transferred by Gateway™ attL×attR recombination to pDEST8 baculvirus expression vector (Life Technologies).
Recombinant baculovirus and Baculovirus-Infected Insect Cells (BIIC) were generated according to Bac-to-Bac kit instructions (Life Technologies) and Wasilko, 2006, respectively. Protein over-expression was accomplished by infecting exponentially growing Spodoptera frugiperda (SF9) cell culture at 1.2×10^6 cell/ml with a 5000 fold dilution of BIIC stock. Infections were carried out at 27° C. for 72 hours, harvested by centrifugation, and stored at −80° C. for purification.
Flag-PRMT5/6His-MeP50 was eluted with 300 mM Imidazole in the same buffer. […] Reference: Wasilko, D. J. and S. E. Lee: “TIPS: titerless infected-cells preservation and scale-up” Bioprocess J., 5 (2006), pp. 29-32.
General Procedure for PRMT5/MEP50 Enzyme Assays on Peptide Substrates.
The assays were all performed in a buffer consisting of 20 mM Bicine (pH=7.6), 1 mM TCEP, 0.005% BSG, and 0.002% Tween20, prepared on the day of use. Compounds in 100% DMSO (1 ul) were spotted into a polypropylene 384-well V-bottom plates (Greiner) using a Platemate Plus outfitted with a 384-channel head (Thermo Scientific). DMSO (1 ul) was added to Columns 11, 12, 23, 24, rows A-H for the maximum signal control and 1 ul of SAH, a known product and inhibitor of PRMT5/MEP50, was added to columns 11, 12, 23, 24, rows I-P for the minimum signal control. A cocktail (40 ul) containing the PRMT5/MEP50 enzyme and the peptide was added by Multidrop Combi (Thermo-Fisher). The compounds were allowed to incubate with PRMT5/MEP50 for 30 min at 25 degrees Celsius, then a cocktail (10 ul) containing ^3H-SAM was added to initiate the reaction (final volume=51 ul). The final concentrations of the components were as follows: PRMT5/MEP50 was 4 nM, ^3H-SAM was 75 nM, peptide was 40 nM, SAH in the minimum signal control wells was 100 uM, and the DMSO concentration was 1%. The assays were stopped by the addition of non-radioactive SAM (10 ul) to a final concentration of 600 uM, which dilutes the ^3H-SAM to a level where its incorporation into the peptide substrate is no longer detectable. 50 ul of the reaction in the 384-well polypropylene plate was then transferred to a 384-well Flashplate and the biotinylated peptides were allowed to bind to the streptavidin surface for at least 1 hour before being washed three times with 0.1% Tween20 in a Biotek ELx405 plate washer. The plates were then read in a PerkinElmer TopCount plate reader to measure the quantity of ^3H-labeled peptide bound to the Flashplate surface, measured as disintegrations per minute (dpm) or alternatively, referred to as counts per minute (cpm).
where dpm=disintegrations per minute, cmpd=signal in assay well, and min and max are the respective minimum and maximum signal controls.
where top and bottom are the normally allowed to float, but may be fixed at 100 or 0 respectively in a 3-parameter fit.

[1] = Table A-2, PRMT5/MEP50 4 nM, 3H-SAM 75 nM, peptide 40 nM
[2] = Table B-2, PRMT5/MEP50 4 nM, 3H-SAM 75 nM, peptide 40 nM
[3] = PRMT5 biochemical assay, Table C-2

T1 sequence (O14744 with tags, fused parts or gaps): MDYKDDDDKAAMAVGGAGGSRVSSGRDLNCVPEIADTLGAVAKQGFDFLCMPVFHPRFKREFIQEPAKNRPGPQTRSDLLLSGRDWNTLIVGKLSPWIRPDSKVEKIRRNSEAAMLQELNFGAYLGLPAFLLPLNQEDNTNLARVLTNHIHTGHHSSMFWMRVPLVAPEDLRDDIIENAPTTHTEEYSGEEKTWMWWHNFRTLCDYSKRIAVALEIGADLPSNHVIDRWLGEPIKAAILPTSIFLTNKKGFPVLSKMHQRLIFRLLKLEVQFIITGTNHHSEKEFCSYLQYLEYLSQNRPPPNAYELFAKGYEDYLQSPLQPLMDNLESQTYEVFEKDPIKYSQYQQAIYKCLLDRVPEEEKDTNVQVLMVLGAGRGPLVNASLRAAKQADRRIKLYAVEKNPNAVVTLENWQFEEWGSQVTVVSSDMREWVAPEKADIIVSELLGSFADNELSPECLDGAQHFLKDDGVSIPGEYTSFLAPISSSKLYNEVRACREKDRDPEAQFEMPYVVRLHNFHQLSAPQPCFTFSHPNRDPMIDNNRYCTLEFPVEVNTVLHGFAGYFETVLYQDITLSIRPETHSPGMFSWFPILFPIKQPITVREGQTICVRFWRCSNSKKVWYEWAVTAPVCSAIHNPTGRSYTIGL
T1 sequence (Q9BQA1 with tags, fused parts or gaps partner limits assumed): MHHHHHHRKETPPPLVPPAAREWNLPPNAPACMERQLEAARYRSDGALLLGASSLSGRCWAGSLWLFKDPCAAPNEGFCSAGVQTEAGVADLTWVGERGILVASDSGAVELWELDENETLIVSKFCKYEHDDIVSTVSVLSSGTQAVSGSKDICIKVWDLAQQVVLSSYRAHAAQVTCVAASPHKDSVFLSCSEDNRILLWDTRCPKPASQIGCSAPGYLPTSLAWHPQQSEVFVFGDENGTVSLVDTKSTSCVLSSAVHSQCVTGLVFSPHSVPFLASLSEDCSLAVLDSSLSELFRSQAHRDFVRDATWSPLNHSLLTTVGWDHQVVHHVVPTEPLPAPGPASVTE

| IC50 (Table D-2) [nM] | also measured | Compound |
| --- | --- | --- |
| 1000 to 10000 | – | OC(COc1ccc(OCc2ccccc2)cc1)CN1CCc2ccccc2C1 (stereo not shown) [Compound D19] |
| 1000 to 10000 | – | OC(COCc1ccc(Cl)cc1)CN1CCc2ccccc2C1 (stereo not shown) [Compound D278] |
| – | IC50 [1]: 1000 to 10000 nM | CS(=O)(=O)Nc1cccnc1OCC(=O)NCC(O)CN1CCc2ccccc2C1 (stereo not shown) [Compound A140] |
| – | IC50 [2]: < 100 nM | CN1CCC(c2cccc(C(=O)NCC(O)CN3CCc4ccccc4C3)c2)C1 (stereo not shown) [Compound B38.] |
| 1000 to 10000 | – | COc1c(COCC(O)CN2CCc3ccccc3C2)ccc2ccccc12 (stereo not shown) [Compound D279] |
| > 40000 | – | COc1cc2c(cc1OC)CN(CC(O)COc1cccc(-c3ccc4ncn(C)c4c3)c1)CC2 (stereo not shown) [Compound D146] |
| – | IC50 [3]: 1000 to 10000 nM | O=C1CN(Cc2ccccc2)CCN1CC(O)CN1CCc2ccccc2C1 (stereo not shown) [Compound C24] |
| 1000 to 10000 | – | CC1c2ccccc2CCN1CC(O)COc1cccc(CNC2CCCC2)c1 (stereo not shown) [Compound D50] |
| 10000 to 40000 | – | OC(COCc1ccccn1)CN1CCc2ccccc2C1 (stereo not shown) [Compound D282] |
| – | IC50 [2]: 101 to 1000 nM | O=C(NCC(O)CN1CCc2ccccc2C1)c1cc(NC2CCOCC2)ccc1F (stereo not shown) [Compound B57.] |
| – | IC50 [2]: 101 to 1000 nM | O=C(NCC(O)CN1CCc2ccccc2C1)c1ccccc1-c1ccccn1 (stereo not shown) [Compound B12.] |
| 1000 to 10000 | – | OC(COC1CCN(c2ccccc2)C1)CN1CCc2ccccc2C1 (stereo not shown) [Compound D175] |
| > 40000 | – | COc1ccc(Cn2nccc2-c2ccc(OC[C@@H](O)CN3CCc4ccccc4C3)cc2)cc1 [Compound D38] |
| 1000 to 10000 | – | Cn1cnc2ccc(-c3cccc(OCC(O)CN4CCc5ccccc5C4(C)C)c3)cc21 (stereo not shown) [Compound D211] |
| – | IC50 [2]: 101 to 1000 nM | NS(=O)(=O)c1cccc(C(=O)NCC(O)CN2CCc3ccccc3C2)c1 (stereo not shown) [Compound B32.] |
| 1000 to 10000 | – | OC(COc1cccc(CNC2CCNCC2)c1)CN1CCc2ccccc2C1 (stereo not shown) [Compound D13] |
| – | IC50 [2]: 101 to 1000 nM | O=C(NC[C@@H](O)CN1CCc2ccccc2C1)c1cccc(NC2CCOCC2)c1 [Compound B43.] |
| 1000 to 10000 | – | OC(COc1cccc(-c2ccc(F)cc2)c1)CN1CCc2ccccc2C1 (stereo not shown) [Compound D77] |
| – | IC50 [2]: 101 to 1000 nM | CNCCOc1cccc(C(=O)NCC(O)CN2CCc3ccccc3C2)c1 (stereo not shown) [Compound B39.] |
| 101 to 1000 | – | OC(COc1ccc(Cc2ccccc2)cc1)CN1CCc2ccccc2C1 (stereo not shown) [Compound D10] |
| – | IC50 [1]: 1000 to 10000 nM | O=C(COc1ccccc1)NC[C@@H](O)CN1CCc2ccccc2C1 [Compound A33] |
| 101 to 1000 | – | O=C(Cn1ccc2cnc(-c3cccc(OCC(O)CN4CCc5ccccc5C4)c3)nc21)N1CCCCC1 (stereo not shown) [Compound D232] |
| – | IC50 [1]: 1000 to 10000 nM | CN(C)c1cncc(OCC(=O)NCC(O)CN2CCc3ccccc3C2)c1 (stereo not shown) [Compound A143] |
| – | IC50 [1]: 10000 to 50000 nM | O=C(CC1CCCCC1)NC[C@@H](O)CN1CCc2ccccc2C1 [Compound A58] |
| – | IC50 [3]: 10000 to 50000 nM | O=c1cccc(CC(O)CN2CCc3ccccc3C2)[nH]1 (stereo not shown) [Compound C2] |
| – | IC50 (Table E-2): > 10000 nM | C[C@H](Oc1cccc2cccnc12)C(=O)NC[C@@H](O)CN1Cc2ccccc2C1 [Compound E6.] |
| > 40000 | – | CC1Cc2ccccc2CN1CC(O)COc1cccc(CNC2CCCC2)c1 (stereo not shown) [Compound D51] |
| – | IC50 [2]: < 100 nM | O=C(NCC(O)CN1CCc2ccccc2C1)c1cc(NC2CCOCC2)ccn1 (stereo not shown) [Compound B55.] |

| IC50 (Table D-2) [nM] | also measured | Compound |
| --- | --- | --- |
| 1000 to 10000 | – | O=C(Nc1cccc(OCC(O)CN2CCc3ccccc3C2)c1)c1ccnnc1 (stereo not shown) [Compound D184] |
| 1000 to 10000 | – | Cn1cnc2ccc(-c3cccc(OCC(O)CN4CCc5c(Cl)cccc5C4)c3)cc21 (stereo not shown) [Compound D215] |
| – | IC50 [2]: < 100 nM | O=C(NCC(O)CN1CCc2ccccc2C1)c1cccc(C2CCNC2)c1 (stereo not shown) [Compound B37.] |
| – | IC50 [1]: 101 to 1000 nM | CN1CCCc2c(OCC(=O)NCC(O)CN3CCc4ccccc4C3)cccc21 (stereo not shown) [Compound A151] |
| > 40000 | – | Cn1cnc2ccc(-c3cccc(OCC(O)CN4CCc5ccccc5C4=O)c3)cc21 (stereo not shown) [Compound D225] |
| > 40000 | – | CN(C)S(=O)(=O)c1cccc(-c2cccc(OCC(O)CN3CCc4ccccc4C3)c2)c1 (stereo not shown) [Compound D61] |
| – | IC50 [1]: 1000 to 10000 nM | CN1CC(c2ccccc2OCC(=O)NCC(O)CN2CCc3ccccc3C2)C1 (stereo not shown) [Compound A135] |
| 1000 to 10000 | – | CN(C(=O)c1cn(C)cn1)c1cccc(OCC(O)CN2CCc3ccccc3C2)c1 (stereo not shown) [Compound D197] |
| – | IC50 [2]: < 100 nM | CN1CCN(Cc2cccc(C(=O)NCC(O)CN3CCc4ccccc4C3)c2)CC1 (stereo not shown) [Compound B30.] |
| – | IC50 [1]: 101 to 1000 nM | O=C(COc1cccc2c1CCCN2)NCC(O)CN1CCc2ccccc2C1 (stereo not shown) [Compound A150] |
| 1000 to 10000 | – | O=C(Nc1cccnc1)c1cccc(OCC(O)CN2CCc3ccccc3C2)c1 (stereo not shown) [Compound D268] |
| 1000 to 10000 | – | OC(COC1CCN(Cc2ccccc2)C1)CN1CCc2ccccc2C1 (stereo not shown) [Compound D35] |
| – | IC50 [1]: > 10000 nM | CS(=O)(=O)Nc1ncccc1OCC(=O)NCC(O)CN1CCc2ccccc2C1 (stereo not shown) [Compound A139] |
| – | IC50 [2]: 1000 to 10000 nM | O=C(NCC(O)CN1CCc2ccccc2C1)c1cccc(C(=O)N2CCOCC2)c1 (stereo not shown) [Compound B46.] |
| – | IC50 (Table E-2): 1000 to 10000 nM | COc1ccc(Cn2cnc3ccc(-c4ccc(OCC(O)CN5Cc6ccccc6C5)cc4)cc32)cc1 (stereo not shown) [Compound E18.] |
| – | IC50 (Table E-2): 101 to 1000 nM | CS(=O)(=O)c1ccccc1OCC(=O)NCC(O)CN1Cc2ccccc2C1 (stereo not shown) [Compound E12.] |
| 101 to 1000 | – | Cn1cnc2ccc(N3CCCC(OCC(O)CN4CCc5ccccc5C4)C3)cc21 (stereo not shown) [Compound D66] |
| – | IC50 (Table E-2): 1000 to 10000 nM | Cn1cnc2ccc(-c3cccc(OCC(O)CN4Cc5ccccc5C4)c3)cc21 (stereo not shown) [Compound E9.] |
| 1000 to 10000 | – | OC(COc1cccc(-c2cncc(F)c2)c1)CN1CCc2ccccc2C1 (stereo not shown) [Compound D76] |
| – | IC50 [1]: > 10000 nM | O=C(COc1cccc2cccnc12)NCC(O)CN1Cc2ccccc2C(F)(F)C1 (stereo not shown) [Compound A144] |
| 1000 to 10000 | – | COc1cccc2c1CN(CC(O)COc1cccc(-c3ccc4ncn(C)c4c3)c1)CC2 (stereo not shown) [Compound D100] |
| 1000 to 10000 | – | COc1ncc(-c2cccc(OCC(O)CN3CCc4ccccc4C3)c2)cn1 (stereo not shown) [Compound D153] |
| 1000 to 10000 | – | OC(COc1cccc(-c2cccc(C(F)(F)F)c2)c1)CN1CCc2ccccc2C1 (stereo not shown) [Compound D87] |
| – | IC50 [2]: 101 to 1000 nM | O=C(NCC(O)CN1CCc2ccccc2C1)c1cccc(OC2CCOCC2)c1 (stereo not shown) [Compound B48.] |
| – | IC50 [3]: 101 to 1000 nM | O=c1cc(Nc2ccccc2)ccn1C[C@H](O)CN1CCc2ccccc2C1 [Compound C19] |
| 1000 to 10000 | – | Cn1cc2cc(-c3cccc(OCC(O)CN4CCc5ccccc5C4)c3)ccc2n1 (stereo not shown) [Compound D115] |
| 1000 to 10000 | – | CN(C(=O)c1cccnc1)c1cccc(OCC(O)CN2CCc3ccccc3C2)c1 (stereo not shown) [Compound D204] |
